Laboratory results from patent US20040097595A1, “Phthalamide derivatives, insecticides for agricultural and horticultural use and method for application thereof” (priority 2001, published 2004).

Assays:
[1] = test system: Diamond Back Moth (Plutella xylostella); experiment: Test Example 1: insecticidal effect on diamond back moth, Chinese cabbage seedling with eggs immersed in liquid chemical; format: in vivo; details: eggs on Chinese cabbage seedling immersed about 30 seconds, six days after immersion, 25° C.
Source text: Insecticidal Effect on Diamond Back Moth (Plutella xylostella)
Adult diamond back moths were released and allowed to oviposit on a Chinese cabbage seedling. Two days after the release, the seedling having the eggs deposited thereon was immersed for about 30 seconds in a liquid chemical prepared by diluting a preparation containing each compound listed in Table 1 or 2 as an active ingredient to adjust the prescribed concentration. After air-dryness, it was allowed to stand in a room thermostatted at 25° C. Six days after the immersion, the hatched insects were counted. The mortality was calculated according to the following equation and the insecticidal effect was judged according to the criterion shown below. The test was carried out with triplicate groups of 10 insects. [formula]

[2] = test system: Common Cutworm (Spodoptera litura); experiment: Test Example 2: insecticidal effect on common cutworm, cabbage leaf immersion; format: in vivo; details: cabbage leaf immersed, second-instar larvae, eight days after inoculation, 25° C.
Source text: Insecticidal Effect on Common Cutworm (Spodoptera litura)
A piece of cabbage leaf (cultivar; Shikidori) was immersed for about 30 seconds in a liquid chemical prepared by diluting a preparation containing each compound listed in Table 1 or 2 as an active ingredient to adjust the prescribed concentration. After air-dryness, it was placed in a plastic Petri dish with a diameter of 9 cm and inoculated with second-instar larvae of common cutworm, after which the dish was closed and then allowed to stand in a room thermostatted at 25° C. Eight days after the inoculation, the dead and alive were counted. The mortality was calculated according to the following equation and the insecticidal effect was judged according to the criterion shown in Test Example 1. The test was carried out with triplicate groups of 10 insects. [formula]

Structure (SMILES): CSCC(C)(C)NC(=O)c1c(I)cccc1C(=O)Nc1ccc(OC(F)(F)C(F)C(F)(F)F)c(Cl)c1Cl (stereo not shown) [Compound 1-66, 3-iodo-N^1-[2,3-dichloro-4-(1,1,2,3,3,3-hexafluoropropoxy)phenyl]-N^2-[(1,1-dimethyl-2-methylthio)ethyl]phthalamide]
- Test Example 1 insecticidal effect (mortality grade) ([1]; 5 ppm): E (Mortality 49-0%)
- Test Example 1 insecticidal effect (mortality grade) ([1]; 50 ppm): A (Mortality 100%)
- Test Example 2 insecticidal effect (mortality grade) ([2]; 5 ppm): E (Mortality 49-0%)
- Test Example 2 insecticidal effect (mortality grade) ([2]; 50 ppm): A (Mortality 100%)

Structure (SMILES): CSCC(C)(C)NC(=O)c1c(I)cccc1C(=O)Nc1ccc(OC(F)(F)C(F)OC(F)(F)C(F)(F)C(F)(F)F)c(Cl)c1Cl (stereo not shown) [Compound 1-84]
- Test Example 1 insecticidal effect (mortality grade) ([1]; 5 ppm): E (Mortality 49-0%)
- Test Example 1 insecticidal effect (mortality grade) ([1]; 50 ppm): A (Mortality 100%)
- Test Example 2 insecticidal effect (mortality grade) ([2]; 5 ppm): E (Mortality 49-0%)
- Test Example 2 insecticidal effect (mortality grade) ([2]; 50 ppm): A (Mortality 100%)

Structure (SMILES): CC(C)(CS(C)(=O)=O)NC(=O)c1c(I)cccc1C(=O)Nc1ccc(OC(F)F)c(Cl)c1Cl [Compound 1-45]
- Test Example 1 insecticidal effect (mortality grade) ([1]; 5 ppm): A (Mortality 100%)
- Test Example 1 insecticidal effect (mortality grade) ([1]; 50 ppm): A (Mortality 100%)
- Test Example 2 insecticidal effect (mortality grade) ([2]; 5 ppm): E (Mortality 49-0%)
- Test Example 2 insecticidal effect (mortality grade) ([2]; 50 ppm): A (Mortality 100%)

Structure (SMILES): CSCC(C)(C)NC(=O)c1c(I)cccc1C(=O)Nc1ccc(S(=O)(=O)C(F)(F)F)cc1Cl [Compound 1-111]
- Test Example 1 insecticidal effect (mortality grade) ([1]; 5 ppm): A (Mortality 100%)
- Test Example 1 insecticidal effect (mortality grade) ([1]; 50 ppm): A (Mortality 100%)
- Test Example 2 insecticidal effect (mortality grade) ([2]; 5 ppm): E (Mortality 49-0%)
- Test Example 2 insecticidal effect (mortality grade) ([2]; 50 ppm): A (Mortality 100%)

Structure (SMILES): CC(C)(CS(C)(=O)=O)NC(=O)c1c(I)cccc1C(=O)Nc1ccc(C(F)(F)F)cc1Cl [Compound 1-22]
- Test Example 1 insecticidal effect (mortality grade) ([1]; 5 ppm): A (Mortality 100%)
- Test Example 1 insecticidal effect (mortality grade) ([1]; 50 ppm): A (Mortality 100%)
- Test Example 2 insecticidal effect (mortality grade) ([2]; 5 ppm): C (Mortality 89-80%)
- Test Example 2 insecticidal effect (mortality grade) ([2]; 50 ppm): A (Mortality 100%)

Structure (SMILES): CSCC(C)(C)NC(=O)c1c(I)cccc1C(=O)Nc1ccc(OC(C(F)(F)F)C(F)(F)F)cc1Cl [Compound 1-64]
- Test Example 1 insecticidal effect (mortality grade) ([1]; 5 ppm): A (Mortality 100%)
- Test Example 1 insecticidal effect (mortality grade) ([1]; 50 ppm): A (Mortality 100%)
- Test Example 2 insecticidal effect (mortality grade) ([2]; 5 ppm): A (Mortality 100%)
- Test Example 2 insecticidal effect (mortality grade) ([2]; 50 ppm): A (Mortality 100%)

Structure (SMILES): CSCC(C)(C)NC(=O)c1c(I)cccc1C(=O)Nc1ccc(OC(F)(F)C(F)OC(F)(F)F)cc1Cl (stereo not shown) [Compound 1-74]
- Test Example 1 insecticidal effect (mortality grade) ([1]; 5 ppm): A (Mortality 100%)
- Test Example 1 insecticidal effect (mortality grade) ([1]; 50 ppm): A (Mortality 100%)
- Test Example 2 insecticidal effect (mortality grade) ([2]; 5 ppm): E (Mortality 49-0%)
- Test Example 2 insecticidal effect (mortality grade) ([2]; 50 ppm): A (Mortality 100%)

Structure (SMILES): CSCC(C)(C)NC(=O)c1c(I)cccc1C(=O)Nc1ccc(-c2ccc(Cl)cc2)cc1Cl [Compound 1-38]
- Test Example 1 insecticidal effect (mortality grade) ([1]; 5 ppm): A (Mortality 100%)
- Test Example 1 insecticidal effect (mortality grade) ([1]; 50 ppm): A (Mortality 100%)
- Test Example 2 insecticidal effect (mortality grade) ([2]; 5 ppm): E (Mortality 49-0%)
- Test Example 2 insecticidal effect (mortality grade) ([2]; 50 ppm): A (Mortality 100%)

Structure (SMILES): CC(C)(CS(C)(=O)=O)NC(=O)c1c(I)cccc1C(=O)Nc1ccc(OC(F)(F)C(F)C(F)(F)F)c(Cl)c1Cl (stereo not shown) [Compound 1-71]
- Test Example 1 insecticidal effect (mortality grade) ([1]; 5 ppm): A (Mortality 100%)
- Test Example 1 insecticidal effect (mortality grade) ([1]; 50 ppm): A (Mortality 100%)
- Test Example 2 insecticidal effect (mortality grade) ([2]; 5 ppm): E (Mortality 49-0%)
- Test Example 2 insecticidal effect (mortality grade) ([2]; 50 ppm): A (Mortality 100%)

Structure (SMILES): CSCC(C)(C)NC(=O)c1c(I)cccc1C(=O)Nc1ccc(OC(F)(F)C(F)OC(F)(F)C(F)(F)C(F)(F)F)cc1Cl (stereo not shown) [Compound 1-81]
- Test Example 1 insecticidal effect (mortality grade) ([1]; 5 ppm): A (Mortality 100%)
- Test Example 1 insecticidal effect (mortality grade) ([1]; 50 ppm): A (Mortality 100%)
- Test Example 2 insecticidal effect (mortality grade) ([2]; 5 ppm): A (Mortality 100%)
- Test Example 2 insecticidal effect (mortality grade) ([2]; 50 ppm): A (Mortality 100%)

Structure (SMILES): CC(C)(CS(C)(=O)=O)NC(=O)c1c(I)cccc1C(=O)Nc1ccc(OC(F)(F)C(F)OC(F)(F)C(F)(F)C(F)(F)F)cc1Cl (stereo not shown) [Compound 1-83]
- Test Example 1 insecticidal effect (mortality grade) ([1]; 5 ppm): A (Mortality 100%)
- Test Example 1 insecticidal effect (mortality grade) ([1]; 50 ppm): A (Mortality 100%)
- Test Example 2 insecticidal effect (mortality grade) ([2]; 5 ppm): A (Mortality 100%)
- Test Example 2 insecticidal effect (mortality grade) ([2]; 50 ppm): A (Mortality 100%)

Structure (SMILES): C[S+]([O-])CC(C)(C)NC(=O)c1c(I)cccc1C(=O)Nc1ccc(OC(F)(F)C(F)OC(F)(F)C(F)(F)C(F)(F)F)c(Cl)c1Cl (stereo not shown) [Compound 1-85]
- Test Example 1 insecticidal effect (mortality grade) ([1]; 5 ppm): A (Mortality 100%)
- Test Example 1 insecticidal effect (mortality grade) ([1]; 50 ppm): A (Mortality 100%)
- Test Example 2 insecticidal effect (mortality grade) ([2]; 5 ppm): E (Mortality 49-0%)
- Test Example 2 insecticidal effect (mortality grade) ([2]; 50 ppm): A (Mortality 100%)

Structure (SMILES): C[S+]([O-])CC(C)(C)NC(=O)c1c(I)cccc1C(=O)Nc1ccc(OC(F)(F)C(F)C(F)(F)F)cc1Cl (stereo not shown) [Compound 1-67]
- Test Example 1 insecticidal effect (mortality grade) ([1]; 5 ppm): A (Mortality 100%)
- Test Example 1 insecticidal effect (mortality grade) ([1]; 50 ppm): A (Mortality 100%)
- Test Example 2 insecticidal effect (mortality grade) ([2]; 5 ppm): E (Mortality 49-0%)
- Test Example 2 insecticidal effect (mortality grade) ([2]; 50 ppm): A (Mortality 100%)

Structure (SMILES): CC(C)(CS(C)(=O)=O)NC(=O)c1c(I)cccc1C(=O)Nc1ccc(OC(F)(F)C(F)C(F)(F)F)cc1Cl (stereo not shown) [Compound 1-68]
- Test Example 1 insecticidal effect (mortality grade) ([1]; 5 ppm): A (Mortality 100%)
- Test Example 1 insecticidal effect (mortality grade) ([1]; 50 ppm): A (Mortality 100%)
- Test Example 2 insecticidal effect (mortality grade) ([2]; 5 ppm): E (Mortality 49-0%)
- Test Example 2 insecticidal effect (mortality grade) ([2]; 50 ppm): A (Mortality 100%)

Structure (SMILES): CC(C)(CS(C)(=O)=O)NC(=O)c1c(I)cccc1C(=O)Nc1ccc(OC(F)(F)C(F)OC(F)(F)C(F)(F)C(F)(F)F)c(Cl)c1Cl (stereo not shown) [Compound 1-86]
- Test Example 1 insecticidal effect (mortality grade) ([1]; 5 ppm): A (Mortality 100%)
- Test Example 1 insecticidal effect (mortality grade) ([1]; 50 ppm): A (Mortality 100%)
- Test Example 2 insecticidal effect (mortality grade) ([2]; 5 ppm): D (Mortality 79-50%)
- Test Example 2 insecticidal effect (mortality grade) ([2]; 50 ppm): A (Mortality 100%)

Structure (SMILES): C[S+]([O-])CC(C)(C)NC(=O)c1c(I)cccc1C(=O)Nc1ccc(OC(F)(F)F)cc1Cl (stereo not shown) [Compound 1-52, N^1-[2-chloro-4-(trifluoromethoxy)phenyl]-N^2-(1,1-dimethyl-2methylsulfinylethyl)-3-iodophthalamide]
- mortality at 5 ppm ([1]; Plutella xylostella, 144 h, 5 ppm, read-out: Test Example 1 insecticidal effect (mortality grade)): 100%
- mortality at 50 ppm ([1]; Plutella xylostella, 144 h, 50 ppm, read-out: Test Example 1 insecticidal effect (mortality grade)): 100%
- mortality at 5 ppm ([2]; Spodoptera litura, 192 h, 5 ppm, read-out: Test Example 2 insecticidal effect (mortality grade)): 100%
- mortality at 50 ppm ([2]; Spodoptera litura, 192 h, 50 ppm, read-out: Test Example 2 insecticidal effect (mortality grade)): 100%

Structure (SMILES): CSCC(C)(C)NC(=O)c1c(I)cccc1C(=O)Nc1ccc(SC(F)F)cc1Cl [Compound 1-107]
- Test Example 1 insecticidal effect (mortality grade) ([1]; 5 ppm): A (Mortality 100%)
- Test Example 1 insecticidal effect (mortality grade) ([1]; 50 ppm): A (Mortality 100%)
- Test Example 2 insecticidal effect (mortality grade) ([2]; 5 ppm): E (Mortality 49-0%)
- Test Example 2 insecticidal effect (mortality grade) ([2]; 50 ppm): E (Mortality 49-0%)

Structure (SMILES): C[S+]([O-])CC(C)(C)NC(=O)c1c(I)cccc1C(=O)Nc1ccc(Oc2ncc(C(F)(F)F)cc2Cl)cc1Cl (stereo not shown) [Compound 1-96]
- Test Example 1 insecticidal effect (mortality grade) ([1]; 5 ppm): A (Mortality 100%)
- Test Example 1 insecticidal effect (mortality grade) ([1]; 50 ppm): A (Mortality 100%)
- Test Example 2 insecticidal effect (mortality grade) ([2]; 5 ppm): E (Mortality 49-0%)
- Test Example 2 insecticidal effect (mortality grade) ([2]; 50 ppm): A (Mortality 100%)

Structure (SMILES): CSCC(C)(C)NC(=O)c1c(I)cccc1C(=O)Nc1cc(Cl)c(OC(F)(Cl)C(F)(Cl)C(F)(F)F)cc1Cl (stereo not shown) [Compound 1-73]
- Test Example 1 insecticidal effect (mortality grade) ([1]; 5 ppm): E (Mortality 49-0%)
- Test Example 1 insecticidal effect (mortality grade) ([1]; 50 ppm): A (Mortality 100%)
- Test Example 2 insecticidal effect (mortality grade) ([2]; 5 ppm): E (Mortality 49-0%)
- Test Example 2 insecticidal effect (mortality grade) ([2]; 50 ppm): A (Mortality 100%)

Structure (SMILES): CC(C)(CS(C)(=O)=O)NC(=O)c1c(I)cccc1C(=O)Nc1ccc(Oc2ncc(C(F)(F)F)cc2Cl)c(Cl)c1Cl [Compound 1-100]
- Test Example 1 insecticidal effect (mortality grade) ([1]; 5 ppm): A (Mortality 100%)
- Test Example 1 insecticidal effect (mortality grade) ([1]; 50 ppm): A (Mortality 100%)
- Test Example 2 insecticidal effect (mortality grade) ([2]; 5 ppm): E (Mortality 49-0%)
- Test Example 2 insecticidal effect (mortality grade) ([2]; 50 ppm): A (Mortality 100%)

Structure (SMILES): CSCC(C)(C)NC(=O)c1c(I)cccc1C(=O)Nc1ccc(OC(F)(F)C(F)C(F)(F)F)c(Cl)c1Cl (stereo not shown) [Compound 1-69]
- Test Example 1 insecticidal effect (mortality grade) ([1]; 5 ppm): A (Mortality 100%)
- Test Example 1 insecticidal effect (mortality grade) ([1]; 50 ppm): A (Mortality 100%)
- Test Example 2 insecticidal effect (mortality grade) ([2]; 5 ppm): E (Mortality 49-0%)
- Test Example 2 insecticidal effect (mortality grade) ([2]; 50 ppm): A (Mortality 100%)

Structure (SMILES): CSCC(C)(C)NC(=O)c1c(I)cccc1C(=O)Nc1ccc(Oc2ncc(C(F)(F)F)cc2Cl)c(Cl)c1Cl [Compound 1-98]
- Test Example 1 insecticidal effect (mortality grade) ([1]; 5 ppm): A (Mortality 100%)
- Test Example 1 insecticidal effect (mortality grade) ([1]; 50 ppm): A (Mortality 100%)
- Test Example 2 insecticidal effect (mortality grade) ([2]; 5 ppm): E (Mortality 49-0%)
- Test Example 2 insecticidal effect (mortality grade) ([2]; 50 ppm): A (Mortality 100%)
